# Target: Cry3Aa (Bacillus thuringiensis, UniProt P0A379)
# Details: solid crystals, non-specific electrostatic adsorption likely; no PEI
# Chain of Cry3Aa (P0A379 58-644 limits assumed): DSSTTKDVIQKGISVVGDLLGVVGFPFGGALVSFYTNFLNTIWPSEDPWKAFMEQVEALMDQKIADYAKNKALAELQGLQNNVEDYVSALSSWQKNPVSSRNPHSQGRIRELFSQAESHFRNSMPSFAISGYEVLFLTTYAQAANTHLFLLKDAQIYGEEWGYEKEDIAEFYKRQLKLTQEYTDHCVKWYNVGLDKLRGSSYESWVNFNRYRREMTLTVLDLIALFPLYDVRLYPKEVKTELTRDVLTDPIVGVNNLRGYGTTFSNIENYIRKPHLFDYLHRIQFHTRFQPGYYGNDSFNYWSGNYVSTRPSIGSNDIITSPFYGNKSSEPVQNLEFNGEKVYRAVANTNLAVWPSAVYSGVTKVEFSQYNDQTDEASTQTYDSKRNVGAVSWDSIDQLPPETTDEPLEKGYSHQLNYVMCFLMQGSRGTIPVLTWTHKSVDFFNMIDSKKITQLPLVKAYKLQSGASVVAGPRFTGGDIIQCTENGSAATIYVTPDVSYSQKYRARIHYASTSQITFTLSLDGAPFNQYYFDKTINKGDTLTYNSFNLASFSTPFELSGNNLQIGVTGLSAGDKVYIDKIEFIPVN
smiles,measurement,value
NC(=O)C1=CN([C@@H]2O[C@H](COP(=O)(O)OP(=O)(O)OC[C@H]3O[C@@H](n4cnc5c(N)ncnc54)[C@H](O)[C@@H]3O)[C@@H](O)[C@H]2O)C=CC1 [NADH],amount of NADH bound,6 ± 2 µmol/g
